This is an account of results in PMC8746705, “Comparison of Experimental Strategies to Study L-Type Amino Acid Transporter 1 (LAT1) Utilization by Ligands” (Molecules, 2021).

Where two headings read alike, the source gives them in different places.

Series [1] concerns the target T1, LAT1 (Mus musculus, UniProt Q9Z127). The experiment in a line: Cis-inhibition of radiolabelled LAT1-probe substrate uptake into BV2 cells. It is filed as cell-based. To be noted: 5 min, mean ± SD. As to the method: (§1) After removal of the culture medium, the BV2 cells were carefully washed with pre-warmed HBSS (Hank’s balanced salt solution) containing 125.0 mM choline chloride, 4.8 mM KCl, 1.2 mM MgSO4, 1.2 mM KH2PO4, 1.3 mM CaCl2, 5.6 mM glucose, and 25.0 mM HEPES (pH 7.4 adjusted with 1 M NaOH). Pre-incubation was done with 500 μL of pre-warmed HBSS at 37 °C for 10 min before adding substrates (250 μL in HBSS) for the uptake experiments.
The ability of compounds 1–15 to inhibit the uptake of a known LAT1 substrate [^14C]-L-leucine was then evaluated by incubating the cells at 37 °C for 5 min in uptake buffer pH 7.4 (250 μL) containing 0.2 µCi/mL of [^14C]-L-leucine, or 2 µCi/mL of [^3H]-L-methionine, [^3H]-L-tryptophan or [^3H]-L-kynurenine (PerkinElmer, Waltham, MA, USA) and 0.1–1000 μM of the studied compound (or HBSS as blank). After incubation, the uptake was stopped by adding 250 µL of ice-cold HBSS, and the cells were washed two times with ice-cold HBSS. The cells were then lysed with 500 μL of NaOH (0.1 M) for 60 min and the lysate was mixed with 3.5 mL of Emulsifier safe cocktail (Ultima Gold, PerkinElmer, Waltham, MA, USA). The radioactivity in the cells was measured by liquid scintillation counting (MicroBeta^2 counter, PerkinElmer Waltham, MA, USA). Half of the maximum inhibitory concentration (IC50) values were calculated by nonlinear regression analysis (fitting the curve to log (concentration) vs. remaining normalized […]).

The target of series [2] is T1, LAT1. The experiment in a line: Concentration-dependent cellular uptake into BV2 cells, Eadie–Hofstee analysis, Transport Type 1 (LAT1). Type of series: cell-based. As for the experimental part:
For the concentration-dependent cellular uptake experiments, the BV2 cells on 24-well plates were incubated with studied compounds (1–200 μM) in pre-warmed HBSS buffer (250 μL) at 37 °C for 30 min. The experiment was then carried out as described for the time-dependent uptake above and the concentration of studied compounds in the cell lysate was analyzed by the LC-MS/MS methods described above and the results were normalized to the total protein concentration. The distinct transport mechanisms were separated from the Michaelis-Menten kinetics by using Eadie–Hofstee plot.
(§2) The studied compounds (1–15) were analyzed by using Agilent 1200 Series Rapid Resolution LC System together with an Agilent 6410 Triple Quadrupole Mass Spectrometer equipped with an electrospray ionization source (Agilent Technologies, Santa Clara, CA, USA). The chromatographic separations of analytes were achieved by using a reversed-phase Zobrax SB-C18 column (50 mm × 2.1 mm, 1.8 μm; Agilent Technologies, Santa Clara, CA, USA) by eluting the samples with 0.1% formic acid in water (A) and 0.1% formic in ACN (B). Labetalol and diclofenac were used as internal standards (ISTD) for the prodrugs and parent drugs, respectively. The transitions used for the quantification at the positive ion mode and chromatographic conditions of each compound and their parent drugs are listed in Table S1. The methods of compounds 1–11 have been reported earlier, while the methods of compounds 12–15 are reported herein for the first time.

Series [3] addresses T1, LAT1. Also noted: method as in earlier work. The following applies: BV2 cells; probe [14C]-L-Leu; mean ± SD; published earlier; ref [31] or [33]; read-out: IC50 of [14C]-L-Leu uptake; cited from earlier work.
Series [4] is described as follows: Time-dependent cellular uptake of compounds into BV2 cells (LC-MS/MS). Type of series: cell-based, mouse. The following applies: mouse, BV2 microglia cells, 100 µM compound, 1–60 min, mean ± SD, n = 3, read-out: T½ of cellular uptake. As for the experimental part: (§3) For the time-dependent cellular uptake experiments, the BV2 cells on 24-well plates were incubated with studied compounds (100 μM) in a pre-warmed HBSS buffer (250 μL) at 37 °C for 1–60 min. Subsequently, the cells were washed three times with an ice-cold HBSS and lysed with 250 μL of NaOH (0.1 M) for 60 min. The lysates were diluted with acetonitrile (ACN) including the selected internal standard (diclofenac to all compounds) with a ratio of 1:3 and centrifuged at 10,000× g for 10 min. The samples were analyzed by the liquid chromatography-tandem mass spectrometric (LC-MS/MS) methods as described below. The concentrations of each compound in cell lysates were calculated from the standard curve that was prepared by spiking known amounts of compounds to ACN including the selected internal standard and then normalized with protein concentration. The protein concentrations on each plate were determined as a mean of three samples by Bio-Rad Protein Assay, based on the Bradford dye-binding method, using bovine serum albumin (BSA) as a standard protein and measuring the absorbance (595 nm) by multiplate reader (EnVision, Perkin Elmer, Inc., Waltham, MA, USA).
as §2

The subject of series [5] is immortalized mouse microglia (BV2). The series is described as above. Type of series: cell-based. The following applies: 100 µM compound, 1–60 min, mean ± SD, n = 3. As for the experimental part:
as §3, §2

For series [6], the target named is T1, LAT1. The experiment in a line: Inhibition type of [14C]-L-Leu uptake (Hanes-Woolf plots) in BV2 cells. It is filed as cell-based. The following applies: for Vmax of [14C]-L-Leu uptake: 0.010–0.20 µM [14C]-L-Leu in the presence of the compound at its IC50, mean ± SD, n = 3–4; for IC50: Table 2, compound concentration used in the inhibition type study, corresponding to IC50 of [14C]-L-Leu uptake; for Inhibition Type: of [14C]-L-Leu uptake, concluded from Km and Vmax. As for the experimental part:
as §1
To evaluate the inhibition type of studied compounds, the BV2 cells were incubated with 0.010–0.20 μM [^14C]-L-leucine together with the studied compound. The concentration of compounds was selected according to the compound-specific IC50 values. The experiment was then carried out as described for the [^14C]-L-leucine uptake above and the radioactivity was measured by liquid scintillation counting. Hanes-Woolf plots were created by setting the ratio of initial substrate concentration to the reaction velocity ([S]/v) against [^14C]-L-leucine concentration (µM). The linear regression was used to calculate Km value (negative value of x-intercept) and Vmax value (1/slope) for [^14C]-L-leucine.

Series [7] is described as follows: Stability / bioconversion of prodrugs to parent drugs (biological media, 0.1 M NaOH cell lysing). Type of series: in vitro ADME. To be noted: cell lysate samples for LC-MS/MS (Table S1 footnote). From the text:
LAT1-utilizing prodrugs 1–15 (Figure 1) were selected for this study based on their ability to utilize LAT1 expressed in cells used in our previous studies. Therefore, the syntheses of these compounds are not described herein as they have been reported earlier. These compounds include prodrugs of an investigational immunosuppressive agent, perforin inhibitor (1), non-steroidal anti-inflammatory drugs (NSAIDs), ketoprofen (2–4, 14), salicylic acid (8), flurbiprofen (9 and 12), ibuprofen (10 and 13) and naproxen (11 and 15), as well as the polyphenolic antioxidant, ferulic acid (5–7). […] In addition, all NSAID prodrugs (compounds 2–4, 9–15) were prepared from their pure S-enantiomers. Prodrugs of ferulic acid (compounds 5–7) were mixtures of E- and […], which were interconvertible over time. […] Therefore, both prodrug and the released parent drug proportions were quantified and taken into account when calculating concentrations transported into the cells.
1. LC-MS/MS ionization parameters of compounds 1-15
Table S1. Ionization parameters for the LC-MS/MS methods of the studied compounds.
Precursor Product Fragmentor Collision Flow rate Gradient LLOQ
Compound ion ion(s) Voltage (V) Energy (mL/min) (A:B) (nM) […]
perforin inhibitor 1a and therefore, their transitions with a positive ion mode are reported only as KPF or as a prodrug and parent drug in parentheses. […]
drugs (ferulic acid (FA), flurbiprofen (FLB), ibuprofen (IBU), and naproxen (NPX), respectively), whose transitions with a negative ion mode are reported below the studied LAT1 -utilizing compounds i n parentheses.

Series [8] concerns the target T1, LAT1. The experiment in a line: Cellular uptake of compounds in the presence of LAT1-inhibitor (KMH-233). The following applies: 100 µM compound, 100 µM KMH-233, 30 min, BV2. It is filed as cell-based. As to the method:
The competitive uptake in the presence of LAT1-inhibitor (KMH-233) was carried out as described above with HBSS buffer solution containing 100 µM of the studied compounds. The cells were pre-incubated with 100 µM LAT1-inhibitor for 10 min and the incubation mixture was removed before adding the studied compound and LAT1-inhibitor on the cells. The competitive uptake (30 min) with the inhibitor was then carried out as the normal uptake described above. The amounts of studied compounds were analyzed by the LC-MS method and calculated from the spiked standard curve and normalized with the protein concentrations.

The target in series [9] is T1, LAT1. The experiment in a line: LAT1 function followed between cell passages with [14C]-L-leucine. The following applies: BV2 cells, passages 8–15.
The mark [10] stands for this setting: probe [3H]-L-Kynu, n = 3–4, read-out: IC50 of [3H]-L-Kynu uptake.
The mark [11] stands for this setting: probe [3H]-L-Met, n = 3–4, read-out: IC50 of [3H]-L-Met uptake.
Setting [12] is: probe [3H]-L-Trp, n = 3–4, read-out: IC50 of [3H]-L-Trp uptake.
Setting [13] is: 1–200 µM, 30 min, BV2, Eadie–Hofstee, mean ± SD, n = 3.

T1 sequence (Q9Z127 whole entry): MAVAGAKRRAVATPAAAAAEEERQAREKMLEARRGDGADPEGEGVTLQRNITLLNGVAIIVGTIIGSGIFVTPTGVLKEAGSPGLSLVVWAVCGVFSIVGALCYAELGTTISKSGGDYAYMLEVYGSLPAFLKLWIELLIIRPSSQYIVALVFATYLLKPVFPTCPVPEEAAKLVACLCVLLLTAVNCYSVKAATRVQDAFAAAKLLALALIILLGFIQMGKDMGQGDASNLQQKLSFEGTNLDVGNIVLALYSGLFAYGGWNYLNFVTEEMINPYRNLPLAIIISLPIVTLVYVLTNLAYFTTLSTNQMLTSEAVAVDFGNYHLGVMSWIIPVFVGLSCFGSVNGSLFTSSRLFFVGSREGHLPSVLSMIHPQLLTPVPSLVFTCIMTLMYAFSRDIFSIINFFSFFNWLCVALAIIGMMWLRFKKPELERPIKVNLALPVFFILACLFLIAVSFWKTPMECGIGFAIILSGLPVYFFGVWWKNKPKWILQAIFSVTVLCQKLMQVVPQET
T1 sequence (P10852 whole entry partner): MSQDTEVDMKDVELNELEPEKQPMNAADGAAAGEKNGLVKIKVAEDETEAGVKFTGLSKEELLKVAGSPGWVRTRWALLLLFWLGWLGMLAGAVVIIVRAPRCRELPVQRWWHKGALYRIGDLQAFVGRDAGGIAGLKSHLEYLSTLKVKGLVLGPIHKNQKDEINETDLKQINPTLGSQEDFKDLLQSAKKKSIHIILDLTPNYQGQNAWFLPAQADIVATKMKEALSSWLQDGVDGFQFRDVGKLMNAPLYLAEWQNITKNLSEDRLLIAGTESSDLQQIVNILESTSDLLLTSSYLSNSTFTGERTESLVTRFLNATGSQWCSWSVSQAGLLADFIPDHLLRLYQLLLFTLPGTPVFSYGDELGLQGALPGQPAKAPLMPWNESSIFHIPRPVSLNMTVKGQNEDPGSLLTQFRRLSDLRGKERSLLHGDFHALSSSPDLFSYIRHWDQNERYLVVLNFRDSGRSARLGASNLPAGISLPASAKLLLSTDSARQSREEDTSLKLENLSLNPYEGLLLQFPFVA

For the compound `CC(C)Cc1ccc([C@H](C)C(=O)Oc2cccc(C[C@H](N)C(=O)O)c2)cc1` [Compound 13], the IC50 (commonly the concentration that inhibits the measured activity by half) is 9.7 ± 1.2 µM at LAT1 [1] (setting [10]); 9.8 ± 1.4 µM on LAT1 [1] (setting [11]); 36.3 ± 1.2 µM on LAT1 [1] (setting [12]); 5.3 ± 1.2 µM on LAT1 [3]; 5 µM at LAT1 [6]. The Km – broadly, the substrate concentration at which the rate is half of its maximum – at LAT1 [2] (setting [13]) was 8.2 ± 1.8 µM. Besides, the “Transport Type 1 (LAT1) Vmax” value on LAT1 [2] (setting [13]) was determined as 63 ± 8 pmol/mg/min. Further, the half-life at 100 μM in [4] worked out at 3.6 ± 1.47 min. In [5], the Max. cellular uptake is 25.90 ± 2.41 nmol/mg of protein. Further, the “Vmax of [14C]-L-Leu uptake” value at LAT1 [6] (BV2) was 2.186 ± 0.231 nmol/min/mg. For the same compound, the “Inhibition Type” value on LAT1 [6] (BV2) is “Mixed type”. The “Conversion to parent drug in the analysed samples” value in [7] is recorded as “partly converted to their parent”. In addition, the “Cellular uptake in the presence of LAT1-inhibitor” value on LAT1 [8] was “inhibited significantly”.
For `C[C@H](C(=O)OCc1ccc(C[C@@H](N)C(=O)O)cc1)c1cccc(C(=O)c2ccccc2)c1` [Compound 14], the IC50 on LAT1 [1] (setting [10]) is 91.5 ± 1.2 µM; at LAT1 [1] (setting [11]), 32 ± 1.4 µM; on LAT1 [1] (setting [12]), 37.6 ± 1.7 µM; on LAT1 [3] it was 52.9 ± 1.3 µM; on LAT1 [6], 53 µM. Besides, the “Cellular uptake” value at LAT1 [2] (BV2 cells) is on record as “highest cellular uptake”. Besides, in series [4], the half-life at 100 μM is 2.2 ± 0.62 min. Further, in [5], the Max. cellular uptake is 10.20 ± 0.61 nmol/mg of protein. Moreover, at LAT1 [6] (BV2), the “Vmax of [14C]-L-Leu uptake” value turned out to be 2.622 ± 0.268 nmol/min/mg. The “Inhibition Type” value at LAT1 [6] (BV2) is recorded as “Mixed type”. In series [7], the “Conversion to parent drug in the analysed samples” value is given as “fully converted into ketoprofen”. At LAT1 [8], the “Cellular uptake in the presence of LAT1-inhibitor” value is reported as “only reductive trends were seen”.
`CC(C)C[C@H](N)C(=O)O` [L-Leu (Crtl), L-leucine, reference compound]: the “Vmax of [14C]-L-Leu uptake (control)” value on LAT1 [6] (0.010–0.20 µM [14C]-L-Leu alone, no compound, BV2) was determined as 3.403 ± 0.055 nmol/min/mg. Further, the Km turned out to be 0.115 ± 0.007 µM on LAT1 [6] (0.010–0.20 µM [14C]-L-Leu alone, no compound, BV2, read-out: Km of [14C]-L-Leu uptake (control)) and 85.8 ± 19.4 µM on LAT1 [9] (read-out: Km of [14C]-L-leucine uptake). On LAT1 [9], the “Vmax of [14C]-L-leucine uptake” value is recorded as 0.84 ± 0.12 nmol/min/mg protein.
